In the oligonucleotide strings, read from the 5' end, every base follows the letter of its sugar. An asterisk marks phosphorothioate; unmarked linkages are phosphodiester. Other units and linkages are bracketed, terminal groups are in braces. A string of capitals states the bases alone. {NAG37} = tridentate N-acetyl-galactosamine targeting ligand, structure (NAG37)s; [invAb] = inverted abasic unit; m = 2'-O-methyl; f = 2'-fluoro
Experiments:
ANGPTL3 gene [1] = assay: Example 7: serum LDL in mice; assay type: in vivo; set-up: key: ratio: (level/pre-treatment day -1 level) ÷ mean of D5W control group; conditions: 0.5 mg/kg single SC injection day 1, female C57bl/6 mice, n=3, ratio to D5W control
Description: (§1) To further assess the in vivo activity of additional ANGPTL3 RNAi agents that are designed to target position 304 on the ANGPTL3 gene, six- to eight-week-old female C57bl/6 mice were used. Pre-dose serum samples were taken at day −1 after a four hour fast. At day 1, each mouse was given a single subcutaneous administration of 200 μl containing 0.5 mg/kg (mpk) of an ANGPTL3 RNAi agent in D5W (dextrose in 5% water), or control (D5W) with no RNAi agent, according to the dosing groups recited in Table 31.
(§2) Each of the RNAi agents included a modified sequence and an N-acetyl-galactosamine-containing targeting ligand conjugated to the 5′ terminal end of the sense strand. (See Tables 3, 4, and 5 for modified sequences and targeting ligand structures). The injections were performed between the skin and muscle (i.e. subcutaneous injections) into the loose skin over the neck and shoulder area. Three (3) mice in each group were tested (n=3). Serum was collected on days 8, 15, 22, and 29. Mice were fasted for four hours prior to each collection. ANGPTL3 protein levels in serum were measured by ELISA assay (R&D Systems), according to the manufacturer's recommendations. Triglycerides, total cholesterol, high-density lipoprotein (HDL), and low-density lipoprotein (LDL) in serum were measured on a Cobas® Integra 400 (Roche Diagnostics), according to the manufacturer's recommendations.
(§3) The ANGPTL3 protein levels, triglyceride levels, total cholesterol levels, HDL levels, and LDL levels for each animal were normalized. For normalization, the level of ANGPTL3 protein, triglyceride, HDL, and total cholesterol, respectively, for each animal at a time point, was divided by the pre-treatment level of expression in that animal (in this case at day −1) to determine the ratio of expression “normalized to pre-treatment.” Expression at a specific time point was then normalized to the D5W control group by dividing the “normalized to pre-treatment” ratio for an individual animal by the mean “normalized to pretreatment” ratio of all mice in the D5W control group.

ANGPTL3 gene [2] = assay: Example 7: serum triglycerides in mice; assay type: in vivo, C57bl/6 mice; set-up: key: ratio: (level/pre-treatment day -1 level) ÷ mean of D5W control group
Description: as §1, §2, §3

ANGPTL3 gene [3] = assay: Example 4: serum total cholesterol in mice; assay type: in vivo, C57bl/6 mice
Description: as §1, with “To” for “To further”, “of” for “of additional”, “additional positions” for “position 304”, “containing either 1 mg/kg (mpk) or” for “containing”, “17.” for “31.”
as §2, with “22, 29,” for “22,”, “day 43 (Groups 1-3, 9, and 11-13 only).” for “29.”, “Triglycerides,” for “Triglycerides, total cholesterol,”, “total cholesterol” for “low-density lipoprotein (LDL)”
(§4) The ANGPTL3 protein levels, triglyceride levels, HDL levels, and total cholesterol levels for each animal were normalized. For normalization, the level of ANGPTL3 protein, triglyceride, HDL, and total cholesterol, respectively, for each animal at a time point, was divided by the pre-treatment level of expression in that animal (in this case at day −1) to determine the ratio of expression “normalized to pre-treatment.” Expression at a specific time point was then normalized to the D5W control group by dividing the “normalized to pre-treatment” ratio for an individual animal by the mean “normalized to pretreatment” ratio of all mice in the D5W control group.

ANGPTL3 protein = assay: Example 4: serum ANGPTL3 protein by ELISA in mice; assay type: in vivo, C57bl/6 mice; conditions: serum, female C57bl/6 mice
Description: as §1, with “To” for “To further”, “of” for “of additional”, “additional positions” for “position 304”, “containing either 1 mg/kg (mpk) or” for “containing”, “17.” for “31.”
as §2, with “22, 29,” for “22,”, “day 43 (Groups 1-3, 9, and 11-13 only).” for “29.”, “Triglycerides,” for “Triglycerides, total cholesterol,”, “total cholesterol” for “low-density lipoprotein (LDL)”
as §4

ANGPTL3 gene [4] = assay: Example 4: serum triglycerides in mice; assay type: in vivo
Description: as §1, with “To” for “To further”, “of” for “of additional”, “additional positions” for “position 304”, “containing either 1 mg/kg (mpk) or” for “containing”, “17.” for “31.”
as §2, with “22, 29,” for “22,”, “day 43 (Groups 1-3, 9, and 11-13 only).” for “29.”, “Triglycerides,” for “Triglycerides, total cholesterol,”, “total cholesterol” for “low-density lipoprotein (LDL)”
as §4

ANGPTL3 gene [5] = assay: Example 7: serum total cholesterol in mice; assay type: in vivo, C57bl/6 mice; set-up: key: ratio: (level/pre-treatment day -1 level) ÷ mean of D5W control group
Description: as §1, §2, §3

[6] = Day 8, 0.5 mg/kg single SC injection on day 1, n=3
[7] = Day 15, 0.5 mg/kg single SC injection on day 1, n=3
[8] = Day 22, 0.5 mg/kg single SC injection on day 1, n=3
[9] = Day 29, 0.5 mg/kg single SC injection on day 1, n=3

## AD05308: RNAi agent duplex: antisense AM07003-AS, sense AM07002-SS (chain 1 mU*fG*mU*fUmGfAmAfUmUfAmAfUmGfUmCfCmAfUmGfG*mA; chain 2 {NAG37}*[invAb]*mUmCmCmAmUmGmGmAfCfAfUmUmAmAmUmUmCmAmAmCmA*[invAb])
ANGPTL3 gene [1]; Day 8
  Avg LDL, normalized to pre-treatment and control: 0.710
ANGPTL3 gene [1]; Day 15
  Avg LDL, normalized to pre-treatment and control: 0.801
ANGPTL3 gene [1]; Day 22
  Avg LDL, normalized to pre-treatment and control: 0.933
ANGPTL3 gene [1]; Day 29
  Avg LDL, normalized to pre-treatment and control: 1.047
ANGPTL3 gene [2]; [6]
  Avg TG, normalized to pre-treatment and control: 0.836
ANGPTL3 gene [2]; [7]
  Avg TG, normalized to pre-treatment and control: 0.755
ANGPTL3 gene [2]; [8]
  Avg TG, normalized to pre-treatment and control: 0.839
ANGPTL3 gene [2]; [9]
  Avg TG, normalized to pre-treatment and control: 0.705
ANGPTL3 gene [3]; [6]
  Avg Total Chol, normalized to pre-treatment and control: 0.992
ANGPTL3 gene [3]; Day 8, 1.0 mg/kg single SC injection on day 1, n=3
  Avg Total Chol, normalized to pre-treatment and control: 0.868
ANGPTL3 gene [3]; [7]
  Avg Total Chol, normalized to pre-treatment and control: 0.838
ANGPTL3 gene [3]; Day 15, 1.0 mg/kg single SC injection on day 1, n=3
  Avg Total Chol, normalized to pre-treatment and control: 0.793
ANGPTL3 gene [3]; [8]
  Avg Total Chol, normalized to pre-treatment and control: 1.000
ANGPTL3 gene [3]; Day 22, 1.0 mg/kg single SC injection on day 1, n=3
  Avg Total Chol, normalized to pre-treatment and control: 0.770
ANGPTL3 gene [3]; [9]
  Avg Total Chol, normalized to pre-treatment and control: 0.958
ANGPTL3 gene [3]; Day 29, 1.0 mg/kg single SC injection on day 1, n=3
  Avg Total Chol, normalized to pre-treatment and control: 0.819
ANGPTL3 gene [3]; Day 43, 0.5 mg/kg single SC injection on day 1, n=3
  Avg Total Chol, normalized to pre-treatment and control: 1.157
ANGPTL3 gene [3]; Day 43, 1.0 mg/kg single SC injection on day 1, n=3
  Avg Total Chol, normalized to pre-treatment and control: 1.073
ANGPTL3 protein; Day 8, 0.5 mg/kg single subcutaneous dose on day 1
  Avg ANGPTL3 (Average ANGPTL3 Protein Normalized to Pre-Treatment and Control): 0.340
ANGPTL3 protein; Day 8, 1.0 mg/kg single subcutaneous dose on day 1
  Avg ANGPTL3 (Average ANGPTL3 Protein Normalized to Pre-Treatment and Control): 0.299
ANGPTL3 protein; Day 15, 0.5 mg/kg single subcutaneous dose on day 1
  Avg ANGPTL3 (Average ANGPTL3 Protein Normalized to Pre-Treatment and Control): 0.310
ANGPTL3 protein; Day 15, 1.0 mg/kg single subcutaneous dose on day 1
  Avg ANGPTL3 (Average ANGPTL3 Protein Normalized to Pre-Treatment and Control): 0.298
ANGPTL3 protein; Day 22, 0.5 mg/kg single subcutaneous dose on day 1
  Avg ANGPTL3 (Average ANGPTL3 Protein Normalized to Pre-Treatment and Control): 0.319
ANGPTL3 protein; Day 22, 1.0 mg/kg single subcutaneous dose on day 1
  Avg ANGPTL3 (Average ANGPTL3 Protein Normalized to Pre-Treatment and Control): 0.252
ANGPTL3 protein; Day 29, 0.5 mg/kg single subcutaneous dose on day 1
  Avg ANGPTL3 (Average ANGPTL3 Protein Normalized to Pre-Treatment and Control): 0.345
ANGPTL3 protein; Day 29, 1.0 mg/kg single subcutaneous dose on day 1
  Avg ANGPTL3 (Average ANGPTL3 Protein Normalized to Pre-Treatment and Control): 0.322
ANGPTL3 protein; Day 43, 0.5 mg/kg single subcutaneous dose on day 1
  Avg ANGPTL3 (Average ANGPTL3 Protein Normalized to Pre-Treatment and Control): 0.582
ANGPTL3 protein; Day 43, 1.0 mg/kg single subcutaneous dose on day 1
  Avg ANGPTL3 (Average ANGPTL3 Protein Normalized to Pre-Treatment and Control): 0.643
ANGPTL3 gene [4]; Day 8, 0.5 mg/kg single subcutaneous dose on day 1, female C57bl/6 mice
  Avg TG (Average Triglycerides Normalized to Pre-Treatment and Control): 1.330
ANGPTL3 gene [4]; Day 8, 1.0 mg/kg single subcutaneous dose on day 1, female C57bl/6 mice
  Avg TG (Average Triglycerides Normalized to Pre-Treatment and Control): 0.749
ANGPTL3 gene [4]; Day 15, 0.5 mg/kg single subcutaneous dose on day 1, female C57bl/6 mice
  Avg TG (Average Triglycerides Normalized to Pre-Treatment and Control): 1.598
ANGPTL3 gene [4]; Day 15, 1.0 mg/kg single subcutaneous dose on day 1, female C57bl/6 mice
  Avg TG (Average Triglycerides Normalized to Pre-Treatment and Control): 1.164
ANGPTL3 gene [4]; Day 22, 0.5 mg/kg single subcutaneous dose on day 1, female C57bl/6 mice
  Avg TG (Average Triglycerides Normalized to Pre-Treatment and Control): 1.732
ANGPTL3 gene [4]; Day 22, 1.0 mg/kg single subcutaneous dose on day 1, female C57bl/6 mice
  Avg TG (Average Triglycerides Normalized to Pre-Treatment and Control): 1.152
ANGPTL3 gene [4]; Day 29, 0.5 mg/kg single subcutaneous dose on day 1, female C57bl/6 mice
  Avg TG (Average Triglycerides Normalized to Pre-Treatment and Control): 1.446
ANGPTL3 gene [4]; Day 29, 1.0 mg/kg single subcutaneous dose on day 1, female C57bl/6 mice
  Avg TG (Average Triglycerides Normalized to Pre-Treatment and Control): 1.021
ANGPTL3 gene [4]; Day 43, 0.5 mg/kg single subcutaneous dose on day 1, female C57bl/6 mice
  Avg TG (Average Triglycerides Normalized to Pre-Treatment and Control): 1.547
ANGPTL3 gene [4]; Day 43, 1.0 mg/kg single subcutaneous dose on day 1, female C57bl/6 mice
  Avg TG (Average Triglycerides Normalized to Pre-Treatment and Control): 0.994
ANGPTL3 gene [5]; [6]
  Avg Total Chol, normalized to pre-treatment and control: 0.756
ANGPTL3 gene [5]; [7]
  Avg Total Chol, normalized to pre-treatment and control: 0.814
ANGPTL3 gene [5]; [8]
  Avg Total Chol, normalized to pre-treatment and control: 0.896
ANGPTL3 gene [5]; [9]
  Avg Total Chol, normalized to pre-treatment and control: 0.927

From patent publication US12729377B2, “RNAi agents and compositions for inhibiting expression of angiopoietin-like 3 (ANGPTL3), and methods of use” (Arrowhead Pharmaceuticals, Inc., priority 2017, dated 2026)
